Read-outs that look alike come from different tables or passages of the source.
Key:
Small Intestine = experiment: Lipid Extraction Studies in Rats, Example 11: small intestine; format: in vivo, Sprague Dawley male rats; details: oral 20 mg/kg/day, fourteen days, ± SD
[1] = test system: liver, small intestine and fecal materials; experiment: Lipid Extraction Studies in Mice, Example 10; format: in vivo, CF1 male mice; details: ± SD
Protocol: The CF1 male mice that had been administered compound 3,4,5,6-dibenzohomopiperidine at four dosage levels as well as the control mice, were sacrificed and the liver, small intestine and fecal materials (24 hour collection) were removed, extracted and analyzed for cholesterol level, triglycerides level, neutral lipid content and phospholipid content. Table 8 reports the decrease in measured levels of these concentrations as a percentage of the level in the control. The control, it is noted, is always 100%.

serum cholesterol [2] = experiment: Testing of Normal Mice: serum cholesterol (modified Liebermann-Burchard), Example 7; format: in vivo, CF1 male mice; details: Mus musculus; for response vs control in vivo at 10 mg/kg: 10 mg/kg/day ip; for response vs control in vivo at 40 mg/kg: 40 mg/kg/day ip; for response vs control in vivo at 60 mg/kg: 60 mg/kg/day ip
serum cholesterol [3] = experiment: Testing of Normal Rats: serum cholesterol, Example 8; format: in vivo, Sprague Dawley male rats; details: oral 20 mg/kg/day
Protocol: In Example 8 a set of six Sprague Dawley male rats, each weighing approximately 350 grams, were orally treated with a concentration of 20 mg per kilogram of rat weight per day, again suspended in a 1% aqueous solution of CMC. The dosage was applied orally by an intubation needle. On days 9 and 16 serum cholesterol and serum triglycerides blood levels of the rats were measured utilizing th procedure of Example 7.
A control group of six similar Sprague Dawley male rats were untreated but tested on Days 9 and 16 in accordance with the tests administered to the treated rats. Table 6 reports the percent control based on the decrease in serum cholesterol and serum triglycerides of the treated rats compared to the levels measured in the untreated control group.

Acetyl CoA Carboxylase = target: T1, Acetyl CoA Carboxylase (Mus musculus, UniProt Q5SWU9); experiment: In vitro enzyme activity, liver homogenate: acetyl CoA carboxylase; format: biochemical, CF1 male mouse; details: ± SD, N = 6, read-out: Percent Control, in vitro enzyme activity
T1 construct: 10% homogenates of CF1 male mouse liver; from tissue; host or cells: CF1 male mouse liver, 10% homogenate
Protocol: (§1) In vitro enzymatic studies were undertaken using 10% homogenates of CF1 male mouse liver with […] of compound 3,4,5,6-dibenzohomopiperidine. In addition, in vivo enzymatic studies were performed, again using 10% liver homogenates (prepared in 0.25 M sucrose plus 0.001 M (ethylenedinitrilo)-tetraacetic acid, ph 7.25 from CF1 male mice obtained after administering 3,4,5,6-dibenzohomopiperidine for 16 days at a concentration ranging from 10 to 60 mg/kg/day, intraperitoneally.
(§2) The following enzyme activities were determined by following standard literature procedures: acetyl coenzyme synthetase; adenosine triphosphate dependent citrate lyase; mitochondrial citrate exchange; cholesterol/7 hydroxylase; 3-hydroxy-3-methyl-glutaryl coenzyme A reductase; acetyl coenzyme A carboxylase activity; fatty acid synthetase activity; sn-glycerol-3-phosphate acyl transferase activity; phosphatidate phosphohydrolase activity; cholesterol acyl transferase; and heparin activated hepatic lypoprotein lipase. Protein was determined for all enzyme assays by the Lowry et al. technique (J. Biol. Chem, 193, 265 (1951)).

HMG CoA Reductase = experiment: In vivo enzyme activity, liver of treated mice: HMG CoA reductase; parameters: species or system CF1 male mice; details: 16 days, ± SD
Protocol: as §1, §2

LDL = experiment: Lipoprotein fractions in Rats, Example 11: LDL; format: in vivo, Sprague Dawley male rats; details: oral 20 mg/kg/day, fourteen days, ± SD
Protocol: A group of six Sprague Dawley male rats were treated with 20 mg/kg/day of 3,4,5,6-dibenzohomopiperidine. The treatment was applied orally. An equal number of Sprague Dawley male rats, having approximately the same weight, were utilized as an untreated control. At the end of fourteen days the control and treated rats were sacrificed. Blood was collected from the abdominal aorta and lipoprotein fractions were obtained by the method of Hatch and Lees [Adv. Lipid Rees., 6, 1 (1968)] and Havel et al. [J. Clin Invest., 34, 1345 (1955)]. Each of the fractions were analyzed for cholesterol, triglycerides, neutral lipids, phospholipids and protein levels.

Acetyl CoA Synthetase = experiment: In vivo enzyme activity, liver of treated mice: acetyl CoA synthetase; parameters: species or system CF1 male mice; details: 16 days, ± SD
Protocol: as §1, §2

Fatty Acid Synthetase = target: T2, Fatty Acid Synthetase (Mus musculus, UniProt P19096); experiment: In vitro enzyme activity, liver homogenate: fatty acid synthetase; format: biochemical, CF1 male mouse; details: ± SD, N = 6, read-out: Percent Control, in vitro enzyme activity
T2 construct: 10% homogenates of CF1 male mouse liver; from tissue; host or cells: CF1 male mouse liver, 10% homogenate
T2 sequence (P19096 whole entry): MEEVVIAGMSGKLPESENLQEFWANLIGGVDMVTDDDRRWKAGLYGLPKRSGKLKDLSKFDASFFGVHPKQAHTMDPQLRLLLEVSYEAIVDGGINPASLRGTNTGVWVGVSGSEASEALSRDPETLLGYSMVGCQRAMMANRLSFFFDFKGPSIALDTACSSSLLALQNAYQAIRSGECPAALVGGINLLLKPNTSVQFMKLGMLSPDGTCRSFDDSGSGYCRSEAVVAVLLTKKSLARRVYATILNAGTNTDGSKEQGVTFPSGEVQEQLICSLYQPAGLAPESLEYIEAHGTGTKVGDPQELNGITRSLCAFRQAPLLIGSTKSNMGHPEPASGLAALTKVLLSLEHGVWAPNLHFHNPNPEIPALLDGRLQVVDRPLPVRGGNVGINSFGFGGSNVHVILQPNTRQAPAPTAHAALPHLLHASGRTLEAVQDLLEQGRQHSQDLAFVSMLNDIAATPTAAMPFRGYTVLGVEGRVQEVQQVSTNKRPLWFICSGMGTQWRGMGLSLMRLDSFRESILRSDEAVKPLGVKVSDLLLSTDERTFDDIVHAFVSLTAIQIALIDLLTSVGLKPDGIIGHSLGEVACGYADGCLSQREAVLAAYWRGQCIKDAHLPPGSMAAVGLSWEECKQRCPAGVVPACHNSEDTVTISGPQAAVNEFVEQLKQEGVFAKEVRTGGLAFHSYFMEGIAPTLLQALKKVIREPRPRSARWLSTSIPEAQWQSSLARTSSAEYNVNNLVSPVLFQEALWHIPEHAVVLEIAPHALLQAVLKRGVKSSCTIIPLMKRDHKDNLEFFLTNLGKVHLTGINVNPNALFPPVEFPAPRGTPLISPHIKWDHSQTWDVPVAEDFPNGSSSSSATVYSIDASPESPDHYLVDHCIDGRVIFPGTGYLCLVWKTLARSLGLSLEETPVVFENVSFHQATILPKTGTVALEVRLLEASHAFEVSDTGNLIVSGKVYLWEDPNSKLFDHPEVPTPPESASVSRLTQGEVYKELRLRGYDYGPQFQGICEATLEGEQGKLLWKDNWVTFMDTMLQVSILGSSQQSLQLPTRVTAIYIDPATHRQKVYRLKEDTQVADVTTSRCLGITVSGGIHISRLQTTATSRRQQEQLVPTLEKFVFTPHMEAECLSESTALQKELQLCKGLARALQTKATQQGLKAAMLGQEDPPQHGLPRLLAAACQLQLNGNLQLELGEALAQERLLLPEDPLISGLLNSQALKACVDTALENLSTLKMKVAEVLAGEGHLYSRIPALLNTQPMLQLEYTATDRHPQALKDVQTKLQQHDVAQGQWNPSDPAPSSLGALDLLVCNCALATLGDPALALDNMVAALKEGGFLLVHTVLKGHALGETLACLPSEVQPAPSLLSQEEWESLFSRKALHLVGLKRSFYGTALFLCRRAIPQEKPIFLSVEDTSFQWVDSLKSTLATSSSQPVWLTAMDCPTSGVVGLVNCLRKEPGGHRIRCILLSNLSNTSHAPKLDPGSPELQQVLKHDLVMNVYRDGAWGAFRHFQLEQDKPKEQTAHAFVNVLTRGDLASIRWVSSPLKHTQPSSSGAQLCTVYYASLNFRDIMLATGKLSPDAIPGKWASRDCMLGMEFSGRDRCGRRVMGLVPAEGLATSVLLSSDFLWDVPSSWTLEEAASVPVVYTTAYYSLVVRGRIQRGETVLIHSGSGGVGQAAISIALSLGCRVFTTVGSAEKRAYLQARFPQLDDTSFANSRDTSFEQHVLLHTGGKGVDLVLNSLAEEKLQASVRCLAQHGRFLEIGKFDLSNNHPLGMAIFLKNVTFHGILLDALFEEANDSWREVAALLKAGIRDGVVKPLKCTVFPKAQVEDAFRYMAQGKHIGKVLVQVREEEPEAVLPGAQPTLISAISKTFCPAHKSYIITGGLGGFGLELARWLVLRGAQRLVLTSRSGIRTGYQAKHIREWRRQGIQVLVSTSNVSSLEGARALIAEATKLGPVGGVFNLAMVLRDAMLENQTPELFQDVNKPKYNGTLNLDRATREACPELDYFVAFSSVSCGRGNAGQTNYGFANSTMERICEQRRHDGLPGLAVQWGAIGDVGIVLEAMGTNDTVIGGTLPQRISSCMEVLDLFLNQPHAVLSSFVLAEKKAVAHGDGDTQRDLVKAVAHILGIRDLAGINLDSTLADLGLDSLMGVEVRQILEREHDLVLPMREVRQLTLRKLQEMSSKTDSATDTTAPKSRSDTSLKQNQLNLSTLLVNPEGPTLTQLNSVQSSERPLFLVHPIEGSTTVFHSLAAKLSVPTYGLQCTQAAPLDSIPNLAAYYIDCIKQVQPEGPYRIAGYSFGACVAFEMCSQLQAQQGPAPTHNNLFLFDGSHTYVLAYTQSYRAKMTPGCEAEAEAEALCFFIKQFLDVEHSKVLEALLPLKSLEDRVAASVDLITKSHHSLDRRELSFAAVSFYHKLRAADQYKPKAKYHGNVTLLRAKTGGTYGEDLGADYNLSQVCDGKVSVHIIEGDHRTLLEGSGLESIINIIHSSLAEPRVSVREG
Protocol: as §1, §2

[4] = 216 h, day 9, ± SD, read-out: Serum Cholesterol Control, % Day 9
[5] = 384 h, day 16, ± SD, read-out: Serum Cholesterol Control, % Day 16

c1ccc2c(c1)CNCc1ccccc1-2 [Compound 3, 3,4,5,6-dibenzohomopiperidine]
Cholesterol, concentration as a function of control (Small Intestine): 130 ± 6% | Mg Lipid Wt, concentration as a function of control (Small Intestine): 143 ± 5% | Neutral Lipids, concentration as a function of control (Small Intestine): 149 ± 6% | Phospholipids, concentration as a function of control (Small Intestine): 119 ± 6% | Protein, concentration as a function of control (Small Intestine): 118 ± 7% | Triglycerides, concentration as a function of control (Small Intestine): 130 ± 6% | Cholesterol, concentration as a function of control ([1]; 20 mg/kg): 55 ± 5% | Lipid wt, concentration as a function of control ([1]; 20 mg/kg): 62 ± 6% | Neutral lipid, concentration as a function of control ([1]; 20 mg/kg): 50 ± 5% | Phospholipid, concentration as a function of control ([1]; 20 mg/kg): 100 ± 7% | Protein, concentration as a function of control ([1]; 20 mg/kg): 95 ± 8% | Triglyceride, concentration as a function of control ([1]; 20 mg/kg): 37 ± 4% | Cholesterol, concentration as a function of control ([1]; 40 mg/kg): 114 ± 8% | Lipid wt, concentration as a function of control ([1]; 40 mg/kg): 112 ± 9% | Neutral lipid, concentration as a function of control ([1]; 40 mg/kg): 95 ± 6% | Phospholipid, concentration as a function of control ([1]; 40 mg/kg): 84 ± 7% | Protein, concentration as a function of control ([1]; 40 mg/kg): 103 ± 7% | Triglyceride, concentration as a function of control ([1]; 40 mg/kg): 70 ± 5% | Cholesterol, concentration as a function of control ([1]; 60 mg/kg): 99 ± 5% | Lipid wt, concentration as a function of control ([1]; 60 mg/kg): 106 ± 8% | Neutral lipid, concentration as a function of control ([1]; 60 mg/kg): 90 ± 6% | Phospholipid, concentration as a function of control ([1]; 60 mg/kg): 91 ± 8% | Protein, concentration as a function of control ([1]; 60 mg/kg): 104 ± 8% | Triglyceride, concentration as a function of control ([1]; 60 mg/kg): 74 ± 6% | Cholesterol, concentration as a function of control ([1]; 10 g/kg (so in the source)): 83 ± 6% | Lipid wt, concentration as a function of control ([1]; 10 g/kg (so in the source)): 92 ± 7% | Neutral lipid, concentration as a function of control ([1]; 10 g/kg (so in the source)): 75 ± 6% | Phospholipid, concentration as a function of control ([1]; 10 g/kg (so in the source)): 78 ± 6% | Protein, concentration as a function of control ([1]; 10 g/kg (so in the source)): 98 ± 9% | Triglyceride, concentration as a function of control ([1]; 10 g/kg (so in the source)): 48 ± 4% | response vs control in vivo at 10 mg/kg (serum cholesterol [2]; [4]): 61 ± 5% | response vs control in vivo at 40 mg/kg (serum cholesterol [2]; [4]): 67 ± 6% | response vs control in vivo at 60 mg/kg (serum cholesterol [2]; [4]): 69 ± 5% | response vs control in vivo at 10 mg/kg (serum cholesterol [2]; [5]): 50 ± 5% | response vs control in vivo at 40 mg/kg (serum cholesterol [2]; [5]): 54 ± 4% | response vs control in vivo at 60 mg/kg (serum cholesterol [2]; [5]): 51 ± 4% | % Control Serum Cholesterol Day 9 (serum cholesterol [3]; day 9, ± SD): 75 ± 5% | % Control Serum Cholesterol Day 16 (serum cholesterol [3]; day 16, ± SD): 64 ± 3% | remaining activity at 50 µM (Acetyl CoA Carboxylase; 50 μM): 84 ± 6% | remaining activity at 100 µM (Acetyl CoA Carboxylase; 100 μM): 100 ± 7% | remaining activity at 200 µM (Acetyl CoA Carboxylase; 200 μM): 99 ± 5% | Percent Control, in vivo enzyme activity (HMG CoA Reductase; 10 mg/kg/day ip): 123 ± 5% | Percent Control, in vivo enzyme activity (HMG CoA Reductase; 20 mg/kg/day ip): 133 ± 9% | Percent Control, in vivo enzyme activity (HMG CoA Reductase; 40 mg/kg/day ip): 146 ± 7% | Percent Control, in vivo enzyme activity (HMG CoA Reductase; 60 mg/kg/day ip): 124 ± 6% | Cholesterol, concentration as a function of control (LDL): 82 ± 8% | Neutral Lipids, concentration as a function of control (LDL): 107 ± 9% | Phospholipids, concentration as a function of control (LDL): 94 ± 10% | Protein, concentration as a function of control (LDL): 108 ± 9% | Triglycerides, concentration as a function of control (LDL): 73 ± 6% | Percent Control, in vivo enzyme activity (Acetyl CoA Synthetase; 10 mg/kg/day ip): 64 ± 6% | Percent Control, in vivo enzyme activity (Acetyl CoA Synthetase; 20 mg/kg/day ip): 95 ± 6% | Percent Control, in vivo enzyme activity (Acetyl CoA Synthetase; 40 mg/kg/day ip): 103 ± 8% | Percent Control, in vivo enzyme activity (Acetyl CoA Synthetase; 60 mg/kg/day ip): 81 ± 6% | remaining activity at 50 µM (Fatty Acid Synthetase; 50 μM): 91 ± 7% | remaining activity at 100 µM (Fatty Acid Synthetase; 100 μM): 92 ± 8% | remaining activity at 200 µM (Fatty Acid Synthetase; 200 μM): 101 ± 9%
